The record followed here is patent US12617773B2, “Azetidin-3-ylmethanol derivatives as CCR6 receptor modulators” (Idorsia Pharmaceuticals Ltd, priority 2020, dated 2026).

SMILES strings stand for the structures.

The test addresses T1, human CCR6 (Homo sapiens, UniProt P51684).
T1 construct: expressed in transfected cells; host or cells: HEK-293
T1 sequence (P51684 1-374): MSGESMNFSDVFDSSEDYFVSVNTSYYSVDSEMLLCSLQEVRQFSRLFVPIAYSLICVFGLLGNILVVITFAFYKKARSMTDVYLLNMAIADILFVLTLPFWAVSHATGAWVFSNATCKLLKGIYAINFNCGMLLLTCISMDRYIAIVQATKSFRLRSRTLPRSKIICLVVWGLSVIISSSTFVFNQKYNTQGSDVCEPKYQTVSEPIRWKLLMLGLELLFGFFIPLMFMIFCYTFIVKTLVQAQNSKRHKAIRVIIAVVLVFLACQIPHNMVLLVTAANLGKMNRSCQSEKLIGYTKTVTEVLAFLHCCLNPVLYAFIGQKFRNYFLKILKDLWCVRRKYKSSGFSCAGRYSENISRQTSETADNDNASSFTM
The experiment in a line: FLIPR assay (inhibition of CCL20-induced calcium signal). The class given is cell-based. The settings on record: HEK-293 cells expressing human CCR6; mean values where determined several times; read-out: FLIPR IC50. Summed up: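 IC50 values come from baseline-corrected peak calcium fluorescence after agonist. The agonist was CCL20 at 10 nM final, added to engineered human CCR6 HEK-293 cells following a 30-min, room-temperature, dark preincubation with serially diluted compound. Readings were taken in a fluorometric imaging plate reader.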
As a reminder, the IC50 is the point on the concentration scale where inhibition reaches its midpoint. As to `CC(C)c1ccc([C@](O)(c2cncc(-c3noc(C4CC(=O)N(c5ccccc5)C4)n3)c2)C2(C)CN(C)C2)cc1` (some centres unmarked) [Example 355], the IC50 is 24.8 nM.
For the compound `CC(C)c1ccc([C@](O)(c2cncc(-c3noc(C4CC(=O)N(Cc5ccccc5)C4)n3)c2)C2(C)CN(C)C2)cc1` (some centres unmarked) [Example 356], the IC50 stood at 12.7 nM.
On to `CC(C)c1ccc([C@](O)(c2cncc(-c3noc(C4CCC(=O)N4c4ccccc4)n3)c2)C2(C)CN(C)C2)cc1` (some centres unmarked) [Example 357], for which the IC50 came out at 26.1 nM.
As to `CC(C)c1ccc([C@](O)(c2cncc(-c3noc(C4CNC(=O)C4)n3)c2)C2(C)CN(C)C2)cc1` (some centres unmarked) [Example 358], the IC50 is 131 nM.
For `CC(C)c1ccc([C@](O)(c2cncc(-c3noc([C@@H]4CCC(=O)N4)n3)c2)C2(C)CN(C)C2)cc1` [Example 359], the concentration for half-maximal inhibition (IC50) stood at 234 nM.
Take `CC(C)c1ccc([C@](O)(c2cncc(-c3noc([C@H]4CCC(=O)N4)n3)c2)C2(C)CN(C)C2)cc1` [Example 360]: the half-inhibitory concentration (IC50) came to 292 nM.
In the case of `CC(C)c1ccc([C@](O)(c2cncc(-c3noc([C@@H]4CCCC(=O)N4)n3)c2)C2(C)CN(C)C2)cc1` [Example 361] it was 164 nM.
As to `CC(C)c1ccc([C@](O)(c2cncc(-c3noc(C4CCNC(=O)C4)n3)c2)C2(C)CN(C)C2)cc1` (some centres unmarked) [Example 362], the IC50 came out at 90 nM.
Turning to `CC(C)c1ccc([C@](O)(c2cncc(-c3noc([C@@H]4CC(=O)N4)n3)c2)C2(C)CN(C)C2)cc1` [Example 363], the IC50 stood at 178 nM.
As for `CC(C)c1ccc([C@](O)(c2cncc(-c3noc([C@@H]4CNC4=O)n3)c2)C2(C)CN(C)C2)cc1` [Example 364], the IC50 was determined as 142 nM.
As for `CC(C)c1ccc([C@](O)(c2cncc(-c3noc(C4CCNCC4)n3)c2)C2(C)CN(C)C2)cc1` [Example 367], the half-maximal inhibitory concentration (IC50) was 321 nM.
For the compound `CC(C)c1ccc([C@](O)(c2cncc(-c3noc(C4(C)CCNCC4)n3)c2)C2(C)CN(C)C2)cc1` [Example 368], the 50% inhibitory concentration (IC50) was 271 nM.
In the case of `CC(C)c1ccc([C@](O)(c2cncc(-c3noc(C4(F)CCNCC4)n3)c2)C2(C)CN(C)C2)cc1` [Example 369], the IC50 is 187 nM.
For `CCCC(=O)N1CCC(c2nc(-c3cncc([C@@](O)(c4ccc(C(C)C)cc4)C4(C)CN(C)C4)c3)no2)CC1` [Example 370, 1-[4-(3-{5-[(R)-(1,3-Dimethyl-azetidin-3-yl)-hydroxy-(4-isopropyl-phenyl)-methyl]-pyridin-3-yl}-[1,2,4]oxadiazol-5-yl)-piperidin-1-yl]-butan-1-one], the IC50 worked out at 65.9 nM.
For `CC(C)c1ccc([C@](O)(c2cncc(-c3noc(C4CCN(C(=O)C(C)(C)C)CC4)n3)c2)C2(C)CN(C)C2)cc1` [Example 371], the concentration for half-maximal inhibition (IC50) worked out at 49.7 nM.
In the case of `COCC(=O)N1CCC(c2nc(-c3cncc([C@@](O)(c4ccc(C(C)C)cc4)C4(C)CN(C)C4)c3)no2)CC1` [Example 372] it was 103 nM.
In the case of `COCCC(=O)N1CCC(c2nc(-c3cncc([C@@](O)(c4ccc(C(C)C)cc4)C4(C)CN(C)C4)c3)no2)CC1` [Example 373], the IC50 is 88.9 nM.
Consider `CC(C)c1ccc([C@](O)(c2cncc(-c3noc(C4CCN(C(=O)C5CC5)CC4)n3)c2)C2(C)CN(C)C2)cc1` [Example 374], for which the 50% inhibitory concentration (IC50) stood at 39 nM.
With `CC(C)c1ccc([C@](O)(c2cncc(-c3noc(C4CCN(C(=O)C5CCCC5)CC4)n3)c2)C2(C)CN(C)C2)cc1` [Example 375], the IC50 stood at 39.7 nM.
For the compound `CC(C)c1ccc([C@](O)(c2cncc(-c3noc(C4CCN(C(=O)C5CCOCC5)CC4)n3)c2)C2(C)CN(C)C2)cc1` [Example 376], the 50% inhibitory concentration (IC50) turned out to be 102 nM.
`CC(C)c1ccc([C@](O)(c2cncc(-c3noc(C4CCN(C(=O)c5ccccc5)CC4)n3)c2)C2(C)CN(C)C2)cc1` [Example 377]: the IC50 came out at 39.5 nM.
On to `COC(=O)N1CCC(c2nc(-c3cncc([C@@](O)(c4ccc(C(C)C)cc4)C4(C)CN(C)C4)c3)no2)CC1` [Example 378], for which the IC50 turned out to be 54.9 nM.
In the case of `CCOC(=O)N1CCC(c2nc(-c3cncc([C@@](O)(c4ccc(C(C)C)cc4)C4(C)CN(C)C4)c3)no2)CC1` [Example 379] it was 41.2 nM.
As for `COCCOC(=O)N1CCC(c2nc(-c3cncc([C@@](O)(c4ccc(C(C)C)cc4)C4(C)CN(C)C4)c3)no2)CC1` [Example 380], the IC50 is 71.5 nM.
As for `CC(C)c1ccc([C@](O)(c2cncc(-c3noc(C4CCN(S(C)(=O)=O)CC4)n3)c2)C2(C)CN(C)C2)cc1` [Example 381], the IC50 was 53.4 nM.
With `CC(C)c1ccc([C@](O)(c2cncc(-c3noc(C4CCN(S(=O)(=O)C(C)C)CC4)n3)c2)C2(C)CN(C)C2)cc1` [Example 382], the half-maximal inhibitory concentration (IC50) was determined as 43.7 nM.
On to `CCCS(=O)(=O)N1CCC(c2nc(-c3cncc([C@@](O)(c4ccc(C(C)C)cc4)C4(C)CN(C)C4)c3)no2)CC1` [Example 383], for which the IC50 is 53.8 nM.
Turning to `COCCS(=O)(=O)N1CCC(c2nc(-c3cncc([C@@](O)(c4ccc(C(C)C)cc4)C4(C)CN(C)C4)c3)no2)CC1` [Example 384], the half-inhibitory concentration (IC50) was determined as 42.1 nM.
Turning to `CC(C)c1ccc([C@](O)(c2cncc(-c3noc(C4CCN(S(=O)(=O)CCO)CC4)n3)c2)C2(C)CN(C)C2)cc1` [Example 385], the IC50 amounted to 117 nM.
Turning to `CC(C)c1ccc([C@](O)(c2cncc(-c3noc(C4CCN(S(=O)(=O)C5CCCC5)CC4)n3)c2)C2(C)CN(C)C2)cc1` [Example 386], the IC50 was 41 nM.
`CC(C)c1ccc([C@](O)(c2cncc(-c3noc(C4CCN(S(=O)(=O)C5CCOCC5)CC4)n3)c2)C2(C)CN(C)C2)cc1` [Example 387]: the half-maximal inhibitory concentration (IC50) was 55.1 nM.
With `CNS(=O)(=O)N1CCC(c2nc(-c3cncc([C@@](O)(c4ccc(C(C)C)cc4)C4(C)CN(C)C4)c3)no2)CC1` [Example 388], the IC50 was determined as 28.2 nM.
On to `CNC1(c2nc(-c3cncc([C@@](O)(c4ccc(C(C)C)cc4)C4(C)CN(C)C4)c3)no2)CC1` [Example 389, (R)-(1,3-Dimethyl-azetidin-3-yl)-(4-isopropyl-phenyl)-{5-[5-(1-methylamino-cyclopropyl)-[1,2,4]oxadiazol-3-yl]-pyridin-3-yl}-methanol], for which the concentration for half-maximal inhibition (IC50) is 58.1 nM.
For `CCOC(=O)N(C)C1(c2nc(-c3cncc([C@@](O)(c4ccc(C(C)C)cc4)C4(C)CN(C)C4)c3)no2)CC1` [Example 390] the value was 175 nM; for `CC(C)c1ccc([C@](O)(c2cncc(-c3noc(C4(N(C)S(C)(=O)=O)CC4)n3)c2)C2(C)CN(C)C2)cc1` [Example 391], 58.8 nM.
Regarding `CC(C)c1ccc([C@](O)(c2cnnc(OC3CCCC3(C)C)c2)C2(C)CN(C)C2)cc1` (stereo partly drawn) [Example 392, (R)-(1,3-Dimethyl-azetidin-3-yl)-[6-(2,2-dimethyl-cyclopentyloxy)-pyridazin-4-yl]-(4-isopropyl-phenyl)-methanol], the IC50 was found to be 24.2 nM.
`CC(C)c1ccc([C@](O)(c2cnnc(OC3CCC(F)(F)C3)c2)C2(C)CN(C)C2)cc1` (stereo partly drawn) [Example 393, (R)-[6-(3,3-Difluoro-cyclopentyloxy)-pyridazin-4-yl]-(1,3-dimethyl-azetidin-3-yl)-(4-isopropyl-phenyl)-methanol]: the concentration for half-maximal inhibition (IC50) turned out to be 25.1 nM.
Turning to `CC(C)c1ccc([C@](O)(c2cnnc(Oc3ccccc3CCO)c2)C2(C)CN(C)C2)cc1` [Example 394, 2-(2-{5-[(R)-(1,3-Dimethyl-azetidin-3-yl)-hydroxy-(4-isopropyl-phenyl)-methyl]-pyridazin-3-yloxy}-phenyl)-ethanol], the concentration for half-maximal inhibition (IC50) came to 1040 nM.
